# Target: PspF1−275 (Escherichia coli, UniProt P37344)
# Assay: analytical gel filtration, ADP-dependent dimer-to-hexamer shift
# Assay type: binding
# Conditions: 0.5 mM ADP, 10 μM protein, pH 8.0, 15 mM MgCl2, room temperature
# PspF1−275, sequence (P37344 1-275): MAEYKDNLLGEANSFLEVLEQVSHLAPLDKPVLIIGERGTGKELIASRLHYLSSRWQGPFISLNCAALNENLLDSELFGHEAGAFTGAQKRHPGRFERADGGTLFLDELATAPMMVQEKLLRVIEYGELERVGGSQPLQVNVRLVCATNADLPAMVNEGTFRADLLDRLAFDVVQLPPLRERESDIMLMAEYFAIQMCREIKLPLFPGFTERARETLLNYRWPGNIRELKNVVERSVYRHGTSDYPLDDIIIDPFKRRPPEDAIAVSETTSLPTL
compound,measurement,value
Nc1ncnc2c1ncn2[C@@H]1O[C@H](COP(=O)(O)OP(=O)(O)O)[C@@H](O)[C@H]1O [ADP],"analytical gel filtration, ADP-dependent dimer-to-hexamer shift",dimers (Fig. 4A) in the absence of nucleotide and hexamers in the presence of ADP

# From article PMC2745333 (Molecular Microbiology, 2009)
